Data: patent publication US20170150719A1, “FUNGICIDAL PYRAZOLES AND THEIR MIXTURES” (E I DU PONT DE NEMOURS AND COMPANY, priority 2010, published 2017)

Assays:
[1] = test system: Blumeria graminis f. sp. tritici; test: Test I: wheat powdery mildew, preventive spray on wheat seedlings, visual disease rating; conditions: 100 = 100% disease control; for pest or weed control at 200 µg/mL: Blumeria graminis, in Triticum aestivum, read-out: Test I rating (disease control), wheat powdery mildew; for pest or weed control at 200 µg/mL / Test I rating (disease control): 0 = no disease control relative to the controls; for Test I rating (disease control) / Test I rating (% disease control): wheat powdery mildew; for Test I rating (% disease control): preventive spray, rating without asterisk
Septoria nodorum = test: Test E: Septoria glume blotch, preventive spray on wheat seedlings, visual disease rating; conditions: 100 = 100% disease control; for pest or weed control at 200 µg/mL: Parastagonospora nodorum, in Triticum aestivum, read-out: Test E rating (disease control), Septoria glume blotch; for pest or weed control at 200 µg/mL / Test E rating (disease control): 0 = no disease control relative to the controls; for Test E rating (disease control): Septoria glume blotch; for Test E rating (% disease control): Septoria glume blotch on wheat, preventive spray, rating without asterisk
Method: (§2) General protocol for preparing test suspensions for Tests A-I: the test compounds were first dissolved in acetone in an amount equal to 3% of the final volume and then suspended at the desired concentration (in ppm) in acetone and purified water (50/50 mix by volume) containing 250 ppm of the surfactant Trem® 014 (polyhydric alcohol esters). The resulting test suspensions were then used in Tests A-I. Each test was conducted in triplicate, and the results were averaged. Spraying a 200 ppm test suspension to the point of run-off on the test plants was the equivalent of a rate of about 800 g/ha. Unless otherwise indicated, the rating values indicate a 200 ppm test suspension was used. (An asterisk “*” next to the rating value indicates a 40 ppm test suspension was used.)
The test suspension was sprayed to the point of run-off on wheat seedlings. The following day the seedlings were inoculated with a spore suspension of Septoria nodorum (the causal agent of Septoria glume blotch) and incubated in a saturated atmosphere at 24° C. for 48 h, and then moved to a growth chamber at 20° C. for 9 days, after which time visual disease ratings were made.

Botrytis cinerea = test: Test A: tomato Botrytis, preventive spray on tomato seedlings, visual disease rating; conditions: 100 = 100% disease control; for pest or weed control at 200 µg/mL: Botrytis cinerea, in Solanum lycopersicum, read-out: Test A rating (disease control), tomato Botrytis; for pest or weed control at 200 µg/mL / Test A rating (disease control): 0 = no disease control relative to the controls; for Test A rating (disease control) / Test A rating (% disease control): tomato Botrytis; for Test A rating (% disease control): preventive spray, 0 = no control relative to controls, rating without asterisk
[2] = test system: Puccinia recondita f. sp. tritici; test: Test G: wheat leaf rust, spray after inoculation (curative) on wheat seedlings, visual disease rating; type: in vivo; conditions: 100 = 100% disease control; for pest or weed control at 200 µg/mL / Test G rating (disease control): sprayed after inoculation, 0 = no disease control; for Test G rating (% disease control): spray after inoculation, rating without asterisk
Source text: (§1) A hyphen (-) indicates no test results.

[3] = test system: Puccinia recondita f. sp. tritici; test: Test H: wheat leaf rust, preventive spray on wheat seedlings, visual disease rating; conditions: 100 = 100% disease control; for pest or weed control at 200 µg/mL: read-out: Test H rating (disease control), wheat leaf rust, sprayed the day before inoculation; for pest or weed control at 200 µg/mL / Test H rating (disease control): 0 = no disease control; for Test H rating (disease control) / Test H rating (% disease control): wheat leaf rust; for Test H rating (disease control): sprayed the day before inoculation; for Test H rating (% disease control): preventive spray, rating without asterisk
Method: as §2
The test suspension was sprayed to the point of run-off on wheat seedlings. The following day the seedlings were inoculated with a spore suspension of Puccinia recondita f. sp. tritici (the causal agent of wheat leaf rust) and incubated in a saturated atmosphere at 20° C. for 24 h, and then moved to a growth chamber at 20° C. for 6 days, after which time visual disease ratings were made.

Septoria tritici = test: Test F: wheat leaf blotch, preventive spray on wheat seedlings, visual disease rating; type: in vivo; conditions: 100 = 100% disease control; for pest or weed control at 200 µg/mL: Zymoseptoria tritici; for pest or weed control at 200 µg/mL / Test F rating (disease control): 0 = no disease control relative to the controls; for Test F rating (% disease control): preventive spray, rating without asterisk
Source text: as §1

Alternaria solani = test: Test B: tomato early blight, preventive spray on tomato seedlings, visual disease rating; conditions: for pest or weed control at 200 µg/mL: Alternaria solani, in Solanum lycopersicum, read-out: Test B rating (disease control); for Test B rating (disease control) / Test B rating (% disease control): tomato early blight, 100 = 100% disease control; for Test B rating (disease control): 0 = no disease control relative to the controls; for Test B rating (% disease control): preventive spray, rating without asterisk
Method: as §2
The test suspension was sprayed to the point of run-off on tomato seedlings. The following day the seedlings were inoculated with a spore suspension of Alternaria solani (the causal agent of tomato early blight) and incubated in a saturated atmosphere at 27° C. for 48 h, and then moved to a growth chamber at 20° C. for 5 days, after which time visual disease ratings were made.

| Compound | Test I rating (disease control) [1] [%] | Test E rating (disease control) (Septoria nodorum) [%] | Test A rating (disease control) (Botrytis cinerea) [%] | Test G rating (disease control) [2] [%] | Test H rating (disease control) [3] [%] | Test F rating (disease control) (Septoria tritici) [%] | Test B rating (disease control) (Alternaria solani) [%] | other results |
| --- | --- | --- | --- | --- | --- | --- | --- | --- |
| Cc1nn(C)c(C(O)c2ccc(F)cc2Cl)c1-c1ccc(F)cc1Cl (stereo not drawn) [Compound 123, α,4-bis(2-chloro-4-fluorophenyl)-1,3-dimethyl-1H-pyrazole-5-methanol] | – | – | – | – | – | – | – | pest or weed control at 200 µg/mL [1]: 95%; pest or weed control at 200 µg/mL (Septoria nodorum): 60%; pest or weed control at 200 µg/mL (Botrytis cinerea): 100%; pest or weed control at 200 µg/mL [2]: 6%; pest or weed control at 200 µg/mL [3]: 100%; pest or weed control at 200 µg/mL (Septoria tritici): 100%; pest or weed control at 200 µg/mL (Alternaria solani): 86% |
| Cc1nn(C)c(Nc2ccc(Cl)cc2Cl)c1-c1ccc(F)cc1F [compound 67] | 100 | 0 | 100 | 0 | 97 | 100 | 64 | – |
| Cc1nn(C)c(Nc2c(F)cc(C#N)cc2F)c1-c1c(F)cc(F)cc1F [compound 26] | 100 | 99 | 100 | 41 | 99 | 100 | 100 | – |
| Cc1nn(C)c(Nc2ccc(F)cc2I)c1-c1ccc(F)cc1Cl [compound 181] | – | – | – | – | – | – | – | Test I rating (% disease control) [1]: 100%; Test E rating (% disease control) (Septoria nodorum): 99%; Test A rating (% disease control) (Botrytis cinerea): 100%; Test G rating (% disease control) [2]: 99%; Test H rating (% disease control) [3]: 99%; Test F rating (% disease control) (Septoria tritici): 100%; Test B rating (% disease control) (Alternaria solani): 99% |
| Cc1nn(C)c(Nc2c(F)cc(F)cc2F)c1-c1c(F)cccc1Cl [compound 56] | 99 | 0 | 98 | 0 | 97 | 100 | 100 | – |
| Cc1nn(C)c(Nc2ccc(F)cc2Br)c1-c1c(Cl)cccc1Cl [compound 114] | 100 | 0 | 99 | 0 | 91 | 100 | 0 | – |
| COc1ccc(-c2c(C)nn(C)c2Nc2c(F)cc(Cl)cc2F)c(Cl)c1 [compound 204] | – | – | – | – | – | – | – | Test I rating (% disease control) [1]: 100%; Test E rating (% disease control) (Septoria nodorum): 99%; Test A rating (% disease control) (Botrytis cinerea): 99%; Test G rating (% disease control) [2]: 99%; Test H rating (% disease control) [3]: 100%; Test F rating (% disease control) (Septoria tritici): 100%; Test B rating (% disease control) (Alternaria solani): 99% |
| COc1ccc(-c2c(C)nn(C)c2Nc2c(F)cc(F)cc2Cl)c(Cl)c1 [compound 203] | – | – | – | – | – | – | – | Test I rating (% disease control) [1]: 98%; Test E rating (% disease control) (Septoria nodorum): 73%; Test A rating (% disease control) (Botrytis cinerea): 95%; Test G rating (% disease control) [2]: 79%; Test H rating (% disease control) [3]: 100%; Test F rating (% disease control) (Septoria tritici): 100%; Test B rating (% disease control) (Alternaria solani): 100% |
| Cc1nn(C)c(Nc2ccc(F)cc2F)c1-c1ccc(F)cc1F [compound 64] | 100 | 0 | 99 | 0 | 97 | 100 | 99 | – |
| Cc1nn(C)c(C(O)c2c(F)cc(Cl)cc2F)c1-c1ccc(F)cc1Cl (stereo not drawn) [Compound 148, α-(4-chloro-2,6-difluorophenyl)-4-(2-chloro-4-fluorophenyl)-1,3-dimethyl-1H-pyrazole-5-methanol] | – | – | – | – | – | – | – | pest or weed control at 200 µg/mL [1]: 64%; pest or weed control at 200 µg/mL (Septoria nodorum): 60%; pest or weed control at 200 µg/mL (Botrytis cinerea): 100%; pest or weed control at 200 µg/mL [2]: 0%; pest or weed control at 200 µg/mL [3]: 100%; pest or weed control at 200 µg/mL (Septoria tritici): 100%; pest or weed control at 200 µg/mL (Alternaria solani): 0% |
| Cc1nn(C)c(Nc2ccc(F)cc2Cl)c1-c1ccc(C#N)cc1Cl [compound 112] | 99 | 40 | 100 | 8 | 100 | 100 | 37 | – |
| Cc1nn(C)c(Nc2ccc(F)cc2F)c1-c1c(F)cc(C#N)cc1F [compound 30] | 100 | 90 | 100 | 82 | 99 | 100 | 99 | – |
| Cc1nn(C)c(Nc2ccc(F)cc2Cl)c1-c1c(F)cc(C#N)cc1F [compound 31] | 100 | 99 | 100 | 53 | 100 | 99 | 98 | – |
| Cc1nn(C)c(Nc2ccc(F)cc2Br)c1-c1ccc(F)cc1Br [compound 95] | 100 | 51 | 100 | 91 | 100 | 100 | 97 | – |
| Cc1nn(C)c(Oc2c(F)cc(C#N)cc2F)c1-c1ccccc1Cl [compound 75] | 98 | 99 | 100 | 0 | 99 | 100 | 99 | – |
| COc1cc(F)c(-c2c(C)nn(C)c2Nc2ccc(F)cc2Cl)c(F)c1 [Compound 23, N-(2-chloro-4-fluorophenyl)-4-(2,6-difluoro-4-methoxyphenyl)-1,3-dimethyl-1H-pyrazol-5-amine] | – | – | – | – | – | – | – | pest or weed control at 200 µg/mL [1]: 100%; pest or weed control at 200 µg/mL (Septoria nodorum): 95%; pest or weed control at 200 µg/mL (Botrytis cinerea): 100%; pest or weed control at 200 µg/mL [2]: 85%; pest or weed control at 200 µg/mL [3]: 99%; pest or weed control at 200 µg/mL (Septoria tritici): 98%; pest or weed control at 200 µg/mL (Alternaria solani): 100% |
| COc1ccc(-c2c(C)nn(C)c2Nc2c(F)cc(Cl)cc2Cl)c(Cl)c1 [compound 201] | – | – | – | – | – | – | – | Test I rating (% disease control) [1]: 97%; Test E rating (% disease control) (Septoria nodorum): 99%; Test A rating (% disease control) (Botrytis cinerea): 100%; Test G rating (% disease control) [2]: 98%; Test H rating (% disease control) [3]: 100%; Test F rating (% disease control) (Septoria tritici): 100%; Test B rating (% disease control) (Alternaria solani): 100% |
| Cc1nn(C)c(Oc2c(F)cc(C#N)cc2F)c1-c1ccccc1Br [compound 76] | 99 | 99 | 100 | 0 | 99 | 99 | 97 | – |
| Cc1nn(C)c(Nc2c(F)cc(Br)cc2Br)c1-c1ccc(F)cc1F [compound 211] | – | – | – | – | – | – | – | Test I rating (% disease control) [1]: 100%; Test E rating (% disease control) (Septoria nodorum): 99%; Test A rating (% disease control) (Botrytis cinerea): 98%; Test G rating (% disease control) [2]: 82%; Test H rating (% disease control) [3]: 100%; Test F rating (% disease control) (Septoria tritici): 100%; Test B rating (% disease control) (Alternaria solani): 99% |
| Cc1nn(C)c(Nc2ccc(F)cc2Cl)c1-c1ccc(F)cc1Br [compound 96] | 100 | 0 | 100 | 94 | 100 | 100 | 95 | – |
| COc1ccc(-c2c(C)nn(C)c2Nc2c(Cl)cc(F)cc2Cl)c(Cl)c1 [compound 205] | – | – | – | – | – | – | – | Test I rating (% disease control) [1]: 21%; Test E rating (% disease control) (Septoria nodorum): 0%; Test A rating (% disease control) (Botrytis cinerea): 59%; Test G rating (% disease control) [2]: 0%; Test H rating (% disease control) [3]: 99%; Test F rating (% disease control) (Septoria tritici): 100%; Test B rating (% disease control) (Alternaria solani): 31% |
